# Results published in ChEMBL document CHEMBL1137067, “Alpha-1-C-alkyl-1-deoxynojirimycin derivatives as potent and selective inhibitors of intestinal isomaltase: remarkable effect of the alkyl chain length on glycosidase inhibitory profile” (Bioorg Med Chem Lett, 2004).
# Columns and labels:
# [1] = target: T1, Alpha-glucosidase (Oryza sativa Japonica Group, UniProt Q9LGC6); test: Inhibitory activity against alpha-Glucosidase from rice
# T1 sequence (Q9LGC6 whole entry): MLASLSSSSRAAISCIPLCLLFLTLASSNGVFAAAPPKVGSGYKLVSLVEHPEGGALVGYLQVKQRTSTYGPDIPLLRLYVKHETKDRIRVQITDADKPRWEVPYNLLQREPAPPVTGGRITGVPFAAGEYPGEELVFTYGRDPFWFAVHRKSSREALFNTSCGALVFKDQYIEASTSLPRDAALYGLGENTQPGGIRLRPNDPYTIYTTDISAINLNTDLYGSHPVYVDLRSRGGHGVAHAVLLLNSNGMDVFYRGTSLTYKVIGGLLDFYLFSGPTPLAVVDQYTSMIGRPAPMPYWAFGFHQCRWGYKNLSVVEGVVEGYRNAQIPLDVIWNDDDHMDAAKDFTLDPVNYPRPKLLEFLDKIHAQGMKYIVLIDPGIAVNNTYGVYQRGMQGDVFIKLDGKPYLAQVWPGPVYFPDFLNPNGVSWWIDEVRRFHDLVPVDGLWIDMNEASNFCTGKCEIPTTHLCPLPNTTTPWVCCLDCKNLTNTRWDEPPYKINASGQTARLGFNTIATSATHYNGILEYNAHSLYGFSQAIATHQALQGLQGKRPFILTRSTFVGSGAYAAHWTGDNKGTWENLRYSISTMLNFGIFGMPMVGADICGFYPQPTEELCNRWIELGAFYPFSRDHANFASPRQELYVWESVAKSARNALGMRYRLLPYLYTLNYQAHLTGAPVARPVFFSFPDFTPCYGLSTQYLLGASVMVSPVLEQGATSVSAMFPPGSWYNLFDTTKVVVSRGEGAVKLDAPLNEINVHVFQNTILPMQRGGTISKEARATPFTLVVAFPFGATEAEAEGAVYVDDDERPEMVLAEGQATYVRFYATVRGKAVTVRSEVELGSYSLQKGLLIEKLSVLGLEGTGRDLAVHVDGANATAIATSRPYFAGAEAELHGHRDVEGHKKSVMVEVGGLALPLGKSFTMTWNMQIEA
# [2] = target: T2, Sucrase-isomaltase, intestinal (Rattus norvegicus, UniProt P23739); test: Inhibition of rat intestinal maltase using disaccharide
# T2 sequence (P23739 1-1013 limits assumed): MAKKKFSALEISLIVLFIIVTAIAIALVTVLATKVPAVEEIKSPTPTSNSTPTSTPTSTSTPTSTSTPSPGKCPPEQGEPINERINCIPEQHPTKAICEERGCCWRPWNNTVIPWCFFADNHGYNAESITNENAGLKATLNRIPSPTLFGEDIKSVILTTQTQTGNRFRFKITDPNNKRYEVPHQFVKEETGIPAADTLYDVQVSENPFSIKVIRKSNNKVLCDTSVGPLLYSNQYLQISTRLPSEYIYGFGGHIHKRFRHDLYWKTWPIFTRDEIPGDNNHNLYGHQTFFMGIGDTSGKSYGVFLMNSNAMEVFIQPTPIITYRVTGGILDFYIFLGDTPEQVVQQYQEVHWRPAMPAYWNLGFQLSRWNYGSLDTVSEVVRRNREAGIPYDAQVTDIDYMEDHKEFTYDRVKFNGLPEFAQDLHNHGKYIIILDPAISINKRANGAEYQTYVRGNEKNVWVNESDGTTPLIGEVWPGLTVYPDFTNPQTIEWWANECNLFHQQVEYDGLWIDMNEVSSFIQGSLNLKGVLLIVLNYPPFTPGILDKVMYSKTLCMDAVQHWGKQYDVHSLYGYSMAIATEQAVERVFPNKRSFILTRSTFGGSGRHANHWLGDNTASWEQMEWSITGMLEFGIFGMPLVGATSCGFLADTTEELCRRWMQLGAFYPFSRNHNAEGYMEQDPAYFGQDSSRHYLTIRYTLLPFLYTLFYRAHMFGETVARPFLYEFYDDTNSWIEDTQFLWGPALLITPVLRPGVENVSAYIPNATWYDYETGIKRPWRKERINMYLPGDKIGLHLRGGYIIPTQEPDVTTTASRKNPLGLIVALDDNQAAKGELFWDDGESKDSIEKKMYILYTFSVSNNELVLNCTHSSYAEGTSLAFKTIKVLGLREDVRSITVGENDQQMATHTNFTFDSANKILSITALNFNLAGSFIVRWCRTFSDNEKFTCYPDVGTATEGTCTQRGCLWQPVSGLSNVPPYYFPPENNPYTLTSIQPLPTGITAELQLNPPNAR
# T2 sequence (P23739 1014-1841 limits assumed): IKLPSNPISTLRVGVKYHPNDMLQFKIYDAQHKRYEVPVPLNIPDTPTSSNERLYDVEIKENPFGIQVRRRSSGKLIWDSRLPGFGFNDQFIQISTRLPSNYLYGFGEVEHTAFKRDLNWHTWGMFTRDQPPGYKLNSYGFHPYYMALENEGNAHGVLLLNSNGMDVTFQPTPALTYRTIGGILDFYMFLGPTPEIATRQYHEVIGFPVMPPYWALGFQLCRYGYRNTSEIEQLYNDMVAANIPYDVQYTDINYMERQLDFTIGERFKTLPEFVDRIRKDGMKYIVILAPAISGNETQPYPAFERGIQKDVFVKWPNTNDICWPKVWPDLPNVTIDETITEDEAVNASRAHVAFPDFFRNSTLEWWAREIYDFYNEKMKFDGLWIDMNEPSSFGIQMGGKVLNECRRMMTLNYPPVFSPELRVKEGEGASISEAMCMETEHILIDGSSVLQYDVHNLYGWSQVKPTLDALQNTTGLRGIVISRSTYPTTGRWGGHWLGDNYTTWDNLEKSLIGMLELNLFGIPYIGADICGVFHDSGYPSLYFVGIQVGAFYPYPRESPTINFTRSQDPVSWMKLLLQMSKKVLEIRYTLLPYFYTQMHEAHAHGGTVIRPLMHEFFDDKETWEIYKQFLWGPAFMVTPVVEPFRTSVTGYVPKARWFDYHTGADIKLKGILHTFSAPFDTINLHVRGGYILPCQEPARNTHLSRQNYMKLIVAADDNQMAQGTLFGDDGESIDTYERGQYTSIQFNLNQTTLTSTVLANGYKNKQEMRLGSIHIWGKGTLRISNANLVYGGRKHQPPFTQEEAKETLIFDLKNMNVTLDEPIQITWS
# [3] = tested on: Saccharomyces cerevisiae; test: Inhibitory activity against alpha-Glucosidase from Yeast at 1000 uM
# [4] = target: T2, Sucrase-isomaltase, intestinal; test: Inhibition of rat intestinal sucrase using disaccharide
# [5] = target: Beta-glucosidase A (Caldicellulosiruptor saccharolyticus, UniProt P10482); test: Inhibitory activity against beta-Glucosidase from Caldocellum saccharolyticum
# Beta-glucosidase A, sequence (P10482 whole entry): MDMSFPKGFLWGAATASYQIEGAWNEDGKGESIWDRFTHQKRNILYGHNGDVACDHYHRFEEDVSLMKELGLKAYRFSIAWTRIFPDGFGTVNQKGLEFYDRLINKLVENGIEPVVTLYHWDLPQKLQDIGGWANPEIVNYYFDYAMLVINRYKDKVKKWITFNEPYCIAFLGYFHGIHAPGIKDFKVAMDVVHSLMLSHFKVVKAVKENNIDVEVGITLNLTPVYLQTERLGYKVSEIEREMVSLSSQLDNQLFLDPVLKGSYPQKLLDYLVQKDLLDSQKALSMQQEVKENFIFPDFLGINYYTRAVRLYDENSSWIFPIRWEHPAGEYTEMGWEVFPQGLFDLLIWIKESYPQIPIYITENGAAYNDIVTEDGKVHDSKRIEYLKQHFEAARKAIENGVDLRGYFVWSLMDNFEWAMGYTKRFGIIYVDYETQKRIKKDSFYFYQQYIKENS
# [6] = target: T2, Sucrase-isomaltase, intestinal; test: Inhibition of rat intestinal isomaltase using disaccharide
# [7] = Inhibitory activity against alpha-Glucosidase from Yeast; design: species or system Saccharomyces cerevisiae
# [8] = target: Beta-glucosidase A (Caldicellulosiruptor saccharolyticus) (UniProt P10482); test: Inhibitory activity against beta-Glucosidase from Caldocellum saccharolyticum at 1000 uM
# Beta-glucosidase A (Caldicellulosiruptor saccharolyticus), sequence (P10482 whole entry): as above
SMILES,IC50 [1] [µM],IC50 [2] [µM],inhibition [3] [%],IC50 [4] [µM],IC50 [5] [µM],IC50 [6] [µM],IC50 [7] [µM],inhibition [8] [%]
CCCCCCCCCN1CC(O)C(O)C(O)C1CO (stereo not given),0.08,1.3,< 50,,,,,
CCCCCCN1CC(O)C(O)C(O)C1CO (stereo not given),0.7,3.7,< 50,0.45,450,0.45,,
OC[C@H]1NC[C@H](O)[C@@H](O)[C@@H]1O [DUVOGLUSTAT],,,,,,,190,
CCCCCCCCC1NC(CO)C(O)C(O)C1O (stereo not given),0.59,1.9,,1.5,110,0.09,25,
CCCCN1C[C@H](O)[C@@H](O)[C@H](O)[C@H]1CO,0.42,,< 50,,,,,< 50
CCCC[C@@H]1N[C@@H](CO)[C@@H](O)[C@H](O)[C@@H]1O,61,210,< 50,155,,115,,< 50
CCCCCCCCCC1NC(CO)C(O)C(O)C1O (stereo not given),1.5,4,,2.5,80,0.0035,56,
CCCC1NC(CO)C(O)C(O)C1O (stereo not given),15,43,,39,,0.53,630,
CCCCCCC1NC(CO)C(O)C(O)C1O (stereo not given),0.8,3.5,,1.2,,0.31,52,< 50
CCCCCCCCN1CC(O)C(O)C(O)C1CO (stereo not given),0.08,1.5,< 50,0.66,160,0.28,,
CCCN1CC(O)C(O)C(O)C1CO (stereo not given),2,7,< 50,2,100,1.4,,
CCCC[C@H]1N[C@@H](CO)[C@@H](O)[C@H](O)[C@@H]1O,11,12,,3.6,,0.15,465,< 50
